Each block holds one molecule with its values, some of them ahead of it.
How the values were obtained:
[1] = system: es-LAPase; assay: es-LAPase enzyme kinetic inhibition assay (1-leucine-β-naphthylamide substrate); format: biochemical, human; conditions: for effect on es-LAPase activity / reaction rate (FIG. 2): 167 μM Bestatin, 167 μM reduced Glutathione, 17 μM reduced thioredoxin, versus control es-LAPase; for Vmax of es-LAPase in presence of inhibitor / Km / Ki: Bestatin 167 μM, Glutathione 167 μM, Thioredoxin 17 μM; for Vmax of es-LAPase in presence of inhibitor: LAPase alone 36.8 ± 1.9; for mode of es-LAPase inhibition: from Vmax, Km and Ki analysis; for Km: LAPase alone 1.67 ± 0.14, read-out: Km of es-LAPase in presence of inhibitor; for Ki: read-out: Ki (inhibition constant)
Method: The kinetic assays were performed using a Spectronic Genesys 5 spectrophotometer from Milton Roy (Rochester, N.Y.). Absorbance was recorded every sixty seconds, over a period of 30 min. Enzyme kinetic assays were performed using 8.0×10^−2 U of es-LAPase in a final reaction volume of 600 μl and triplicate samples. […] A corresponding blank without es-LAPase was used as baseline. Both of the cuvettes were transferred to the spectrophotometer where the 1-leucine-β-naphthylmide solution was added last, marking time zero of the reaction.

[2] = system: primary parental breast carcinoma cells; assay: LAPase release into cell supernatants following estrogen stimulation; format: cell-based, human
Method: Primary parental breast carcinoma cells were incubated with 100 nM 17-β-Estradiol for 24 hrs and cell media alone as a control. LAPase in supernatants was isolated using MAb 7B6(IgG1a)-protein-G-LAPase beads prepared by covalently cross-linking the monoclonal antibody. LAPase activity of the LAPase-immunoprecipitated supernatants was determined fluorometrically using leucine-β-naphthylamide as the substrate as described by Kuramochi et al. [Kuramochi, H. et al., (1987) J. Antibiot., 401605-1611].
During the same period, LAPase in cell supernatants of control cells remain unchanged. In addition, LAPase activity was determined in supernatants of primary parental cell lines immunoprecipitated with MAb 7B6(IgG1a)-protein-G-LAPase matrix bound antibodies. […] In addition, there was no effect of estrogen incubation on LAPase activity in purified preparations of this enzyme alone.

[3] = system: LAPase (purified preparations obtained from Sigma); assay: LAPase activity of purified enzyme preparations incubated with 17-β-Estradiol; format: biochemical; conditions: 100 nM 17-β-Estradiol, 24 hrs
Method: Purified preparations of the enzyme obtained from Sigma were incubated with 100 nM 17-β-Estradiol for 24 hrs. LAPase activity was determined fluorometrically using leucine-β-naphthylamide as the substrate as described by Kuramochi et al. [Kuramochi, H. et al., (1987) J. Antibiot., 401605-1611].

effect on es-LAPase activity / reaction rate (FIG. 2) [1]: significant slower rates of reaction | Km [1]: 178 ± 25 µM | Vmax of es-LAPase in presence of inhibitor [1]: 17.2 ± 1.5 10^−6 M/min | Ki [1]: 1530 ± 400 nM | mode of es-LAPase inhibition [1]: noncompetitive
Molecule: N[C@@H](CCC(=O)N[C@@H](CS)C(=O)NCC(=O)O)C(=O)O [Glutathione]

Km [1]: 23.4 ± 0.6 µM | Vmax of es-LAPase in presence of inhibitor [1]: 5.31 ± 0.02 10^−6 M/min | Ki [1]: 3400 ± 580 nM | mode of es-LAPase inhibition [1]: uncompetitive
B1: Thioredoxin: thiol-containing peptide; human Thioredoxin purified from CD4+T MP6 cells, compared to E. coli Thioredoxin from Sigma-Aldrich (protein, UniProt P10599 2-105, looked up)
Thioredoxin: VKQIESKTAFQEALDAAGDKLVVVDFSATWCGPCKMIKPFFHSLSEKYSNVIFLEVDVDDCQDVASECEVKCMPTFQFFKKGQKVGEFSGANKEKLEATINELV
effect on es-LAPase activity / reaction rate (FIG. 2) [1]: significant slower rates of reaction

Second part, the molecule before the results:

Molecule: CC(C)C[C@H](NC(=O)[C@@H](O)[C@H](N)Cc1ccccc1)C(=O)O [Bestatin]
effect on es-LAPase activity / reaction rate (FIG. 2) [1]: clearly inhibits es-LAPase activity | Vmax of es-LAPase in presence of inhibitor [1]: 34.0 ± 3.9 10^−6 M/min | mode of es-LAPase inhibition [1]: competitive

Molecule: C[C@]12CC[C@@H]3c4ccc(O)cc4CC[C@H]3[C@@H]1CC[C@@H]2O [estrogen, 17-β-Estradiol]
extracellular LAPase activity of estrogen stimulated cells ([2]; 100 nM, 24 hours, supernatants immunoprecipitated with MAb 7B6-protein-G matrix, control with media alone 6.4×10^−6 U/ml): 7.7×10^−5 U/ml | estrogen concentration of maximum release / optimal activation of LAPase ([2]; 24 hours of incubation, dose-dependent): 100 nM | effect of estrogen incubation on LAPase activity in purified preparations of the enzyme alone [3]: no effect

— patent US20040106143A1, “Monoclonal antibody against estrogen stimulated leucine aminopeptidase” (priority 2000, published 2004)
